From article PMC7031696 (Cell chemical biology, 2019)

System: 3D7-MR4 trophozoite parasite-infected RBCs
Assay: Metabolomic profiling (hydrophilic metabolite changes, UHPLC-MS)
Assay type: cell-based, Plasmodium falciparum

Structure (SMILES): CC(C)(C)c1ccc2c(c1)CN(Cc1ccc(Cl)cc1)CO2 [MMV000442]
- Log2(fold changes) adenosine (metabolite adenosine, log2 fold change): 0.0000
- Log2(fold changes) alanine/sarcosine (metabolite alanine/sarcosine, log2 fold change): -0.9186
- Log2(fold changes) anthranilate (metabolite anthranilate, log2 fold change): 0.3315
- Log2(fold changes) arginine (metabolite arginine, log2 fold change): -1.6314
- Log2(fold changes) asparagine (metabolite asparagine, log2 fold change): -0.3296
- Log2(fold changes) aspartate (metabolite aspartate, log2 fold change): -0.6205
- Log2(fold changes) biotin (metabolite biotin, log2 fold change): -0.8987
- Log2(fold changes) cCMP (metabolite cCMP, log2 fold change): 0.0000
- Log2(fold changes) cGMP (metabolite cGMP, log2 fold change): 0.0000
- Log2(fold changes) carnitine (metabolite carnitine, log2 fold change): 0.0000
- Log2(fold changes) citrate/isocitrate (metabolite citrate/isocitrate, log2 fold change): 0.0000
- Log2(fold change) of coenzyme A (metabolite coenzyme A): 0.0000
- Log2(fold change) of cyclic-AMP (metabolite cyclic-AMP): -0.6289
- Log2(fold change) of cytidine (metabolite cytidine): 0.6525
- Log2(fold change) of dAMP (metabolite dAMP): 0.2859
- Log2(fold change) of dATP (metabolite dATP): 0.0000
- Log2(fold change) of dCDP (metabolite dCDP): -0.4379
- Log2(fold change) of dCMP (metabolite dCMP): 0.0000
- Log2(fold change) of dCTP (metabolite dCTP): 0.0000
- Log2(fold change) of dGDP/ADP (metabolite dGDP/ADP): -0.0785
- Log2(fold change) of dGMP/AMP (metabolite dGMP/AMP): 0.0000
- Log2(fold change) of dGTP/ATP (metabolite dGTP/ATP): 0.0000
- Log2(fold change) of dTDP (metabolite dTDP): -0.1987
- Log2(fold change) of dTMP (metabolite dTMP): 0.0000
- Log2(fold change) of dTTP (metabolite dTTP): -0.2587
- Log2(fold change) of dUMP (metabolite dUMP): 0.0000
- Log2(fold change) of dUTP (metabolite dUTP): -0.3266
- Log2(fold change) of deoxyguanosine (metabolite deoxyguanosine): 0.0000
- Log2(fold change) of deoxyinosine (metabolite deoxyinosine): 0.0000
- Log2(fold change) of deoxyribose-phosphate (metabolite deoxyribose-phosphate): 0.7610
- Log2(fold change) of deoxyuridine (metabolite deoxyuridine): 0.1388
- Log2(fold change) of dihydroorotate (metabolite dihydroorotate): -0.6717
- Log2(fold change) of folate (metabolite folate): -0.1041
- Log2(fold change) of fructose-1-6-bisphosphate (metabolite fructose-1-6-bisphosphate): -0.1009
- Log2(fold change) of fructose-6-phosphate (metabolite fructose-6-phosphate): -0.3802
- Log2(fold change) of fumarate (metabolite fumarate): -0.7813
- Log2(fold change) of glucono-lactone (metabolite glucono-lactone): 0.0000
- Log2(fold change) of glucose-1/6-phosphate (metabolite glucose-1/6-phosphate): 0.0000
- Log2(fold change) of glutamate (metabolite glutamate): -0.2803
- Log2(fold change) of glutamine (metabolite glutamine): -0.0929
- Log2(fold change) of glutathione (metabolite glutathione): -0.1808
- Log2(fold change) glutathione disulfide (metabolite glutathione disulfide): -0.3868
- Log2(fold change) glycerate (metabolite glycerate): -0.4490
- Log2(fold change) guanine (metabolite guanine): -0.8448
- Log2(fold change) guanosine (metabolite guanosine): -1.2469
- Log2(fold change) histidine (metabolite histidine): -1.0996
- Log2(fold change) homocysteic acid (metabolite homocysteic acid): -0.4943
- Log2(fold change) hydroxyphenylpyruvate (metabolite hydroxyphenylpyruvate): 0.0000
- Log2(fold change) hydroxyproline/Aminolevulinate (metabolite hydroxyproline/Aminolevulinate): -0.0777
- Log2(fold change) hypoxanthine (metabolite hypoxanthine): -0.1293
- Log2(fold change) indole (metabolite indole): 0.0000
- Log2(fold change) inosine (metabolite inosine): -0.6031
- Log2(fold change) isoleucine (metabolite isoleucine): -0.8559
- Log2(fold change) lactate (metabolite lactate): -0.6662
- Log2(fold change) leucine (metabolite leucine): 0.0000
- Log2(fold change) lysine (metabolite lysine): -2.7291
- Log2(fold change) malate (metabolite malate): -1.5961
- Log2(fold change) maleic acid (metabolite maleic acid): 0.0000
- Log2(fold change) methionine (metabolite methionine): -0.3354
- Log2(fold change) myo-inositol (metabolite myo-inositol): 0.0000
- Log2(fold change) nicotinamide mononucleotide (metabolite nicotinamide mononucleotide): -1.1163
- Log2(fold change) nicotinate (metabolite nicotinate): -0.1414
- Log2(fold change) ornithine (metabolite ornithine): -0.3825
- Log2(fold change) orotate (metabolite orotate): 0.0000
- Log2(fold change) orotidine-5'-phosphate (metabolite orotidine-5'-phosphate): -4.2271
- Log2(fold change) oxaloacetate (metabolite oxaloacetate): 0.0000
- Log2(fold change) p-aminobenzoate (metabolite p-aminobenzoate): 0.0000
- Log2(fold change) p-hydroxybenzoate (metabolite p-hydroxybenzoate): 0.0000
- Log2(fold change) pantothenate (metabolite pantothenate): -0.5576
- Log2(fold change) phenylalanine (metabolite phenylalanine): -0.7473
- Log2(fold change) phenylpyruvate (metabolite phenylpyruvate): 0.0000
- Log2(fold change) phosphoenolpyruvate (metabolite phosphoenolpyruvate): 0.5342
- Log2(fold change) prephenate (metabolite prephenate): -0.6985
- Log2(fold change) proline (metabolite proline): -0.4674
- Log2(fold change) pyridoxine (metabolite pyridoxine): -0.4977
- Log2(fold change) pyruvate (metabolite pyruvate): -0.6971
- Log2(fold change) riboflavin (metabolite riboflavin): 0.0000
- Log2(fold change) ribose (metabolite ribose): -0.3439
- Log2(fold change) ribose-phosphate (metabolite ribose-phosphate): -0.4255
- Log2(fold change) ribulose-5-phosphate (metabolite ribulose-5-phosphate): 0.0000
- Log2(fold change) serine (metabolite serine): -0.2977
- Log2(fold change) sn-glycerol-3-phosphate (metabolite sn-glycerol-3-phosphate): 0.0000
- Log2(fold change) succinate/Methylmalonic acid (metabolite succinate/Methylmalonic acid): 0.2362
- Log2(fold change) succinyl-CoA/methylmalonyl-CoA (metabolite succinyl-CoA/methylmalonyl-CoA): 0.0000
- Log2(fold change) taurine (metabolite taurine): 0.0000
- Log2(fold change) thiamine (metabolite thiamine): -0.4264
- Log2(fold change) threonine/homoserine (metabolite threonine/homoserine): -0.5095
- Log2(fold change) thymidine (metabolite thymidine): 0.0000
- Log2(fold changes) thymine (metabolite thymine, log2 fold change): 0.0000
- Log2(fold changes) trehalose-6-Phosphate (metabolite trehalose-6-Phosphate, log2 fold change): 0.0000
- Log2(fold changes) tryptophan (metabolite tryptophan, log2 fold change): -0.3248
- Log2(fold changes) tyrosine (metabolite tyrosine, log2 fold change): -0.3731
- Log2(fold changes) uridine (metabolite uridine, log2 fold change): -0.7263
- Log2(fold changes) valine (metabolite valine, log2 fold change): 0.0000
- Log2(fold changes) xanthine (metabolite xanthine, log2 fold change): 0.0000
- Log2(fold changes) xanthosine-5-phosphate (metabolite xanthosine-5-phosphate, log2 fold change): 0.0000
- Log2(fold changes) xanthosine (metabolite xanthosine, log2 fold change): -0.5168
- Log2(fold changes) xylose (metabolite xylose, log2 fold change): 0.0000
